According to patent US20110311445A1, “DIAGNOSIS AND TREATMENT OF MYELOID AND LYMPHOID CELL CANCERS” (MORPHOTEK, INC., priority 2003, published 2011):

What was measured:
[1] = test system: myeloid and lymphoid cancer cells; experiment: Binding of chlorotoxin and binding-domain peptides to lymphoid cancer cells (FACS, streptavidin-fluorescein); conditions: general statement; FACS on Raji, Daudi, Molt-4 cells (FIG. 1, 2)
Method: Raji (Epstein et al. (1966) J. Natl. Cancer Inst. 37, 547-559) and Daudi (Klein et al. (1968) Cancer Res. 28 1300-1310) cells were used either unfixed or fixed with one percent glutaraldehyde. The Raji cell line (ATCC CCL-86) is a B lymphocyte cell line derived from a Burkitt's lymphoma of a person. The Daudi cell line (ATCC CCL-213) is a B lymphoblast cell line derived from person. Cells were incubated with chlorotoxin or the designated binding domain peptide (SEQ ID NO: 8 or 10), washed then incubated with streptavidin-fluorescein (strp-FL). After another wash, cells were analyzed using a FACS analyzer and the percent of positive staining cells determined (FIG. 1). Controls included untreated cells, cells incubated with streptavidin-fluorescein alone and cells incubated with negative peptide.
Molt-4 cells (Minowada et al. (1972) J. Natl. Cancer Inst. 49, 891-895) were used either unfixed or fixed with one percent glutaraldehyde. The Molt-4 cell line is a T lymphoblast cell line derived from a patient in relapse. Cells were incubated with chlorotoxin or the designated binding domain peptide (SEQ ID NO: 8 or 10), washed then incubated with streptavidin-fluorescein (strp-FL). After another wash, cells were analyzed using a FACS analyzer and the percent of positive staining cells determined (FIG. 2). […]

Daudi cell line = experiment: Cell proliferation / cytotoxicity, CCK-8, chlorotoxin (TM-601) with or without doxorubicin; format: cell-based; conditions: in combination with doxorubicin; FIG. 4
Method: (§1) A tissue culture method was optimized to test the effects of chlorotoxin (TM-601) in the presence or absence of doxorubicin on Raji (FIG. 3) and Daudi (FIG. 4) cell lines. Cells were plated on 96-well microtiter tissue culture plates at a density of approximately 1000-2000 cells per well, depending on the specific cell line. Cells were allowed to adhere twenty-four hours in a 37° C., humidified cell culture incubator supplied with five percent carbon dioxide. In order to achieve a dose-response curve for each drug in each cell line, cells were treated with decreasing concentrations doxorubicin for two to five days. Following treatment, the cytotoxic effect of doxorubicin was quantified using the Cell Counting Kit-8 (CCK-8) (Dojindo Inc.) according to the manufacturer's instructions. In brief, following the treatment period with doxorubicin, cells were incubated with CCK-8 reagent and incubated at 37° C. for one to four hours, depending on the specific cell type. After incubation, plates were read on a microplate reader at a wavelength of 490 nm.

Raji cell line = experiment: as above; format: cell-based; conditions: in combination with doxorubicin; FIG. 3
Method: as §1

With chlorotoxin the “binding to myeloid and lymphoid cancer cells” value [1] was “specifically and selectively bind”, the “effect on Daudi cell proliferation” value (Daudi cell line) was “close-dependent synergistic effects” and the “effect on Raji cell proliferation” value (Raji cell line) was “close-dependent synergistic effects”.
